From patent US20260007599A1, “TICAGRELOR IV FORMULATIONS FOR USE IN THE TREATMENT OF GRAM-POSITIVE BACTEREMIA” (Hyloris Developments SA, priority 2023, published 2026)

Key:
[1] = Flocculation test (20 μl sample material in 1 ml diluent); format: physicochemical
[2] = Storage stability of ticagrelor 6 mg/ml in HPβCD 40% w/w, phosphate buffer pH 7.5, 40° C./75% RH; format: physicochemical
Procedure: A Gradient HPLC method was used to analyze impurities in formulations using a YMC-Pack Pro C18 column (100×4.6 mm, S-3 μm 12 nm). Good separation was obtained for all the impurities. Following the experiment described in example 2, a storage stability study at pH 7.5 was conducted First HPβCD was dissolved in a phosphate buffer solution of pH 7.5 prepared separately in water. […] The solution was filtered through a 0.22 micrometer filter and filled in USP Type I amber colored glass vials. The vials were stoppered and stored. All precautions were taken during manufacturing, such as N2 purging and avoiding direct exposure to light.

[3] = Physical stability and diluent tests of ticagrelor 5 mg/ml batches with varying HPβCD; format: physicochemical; details: for Appearance in 5% dextrose / Appearance in NaCl 0.9%: diluted to ticagrelor 0.1 mg/ml; for Appearance, undiluted: ticagrelor 5 mg/ml
Procedure: 5 mg/ml ticagrelor-cyclodextrin solutions with varying amounts of HPβCD were diluted with normal saline, 5% dextrose solution or Ringer's lactate solution. The stability was screened. The ticagrelor concentration when diluted into dextrose or saline was 0.1 mg/ml.

[4] = Clear aqueous solutions with ticagrelor-cyclodextrin inclusion complex (Table 17); format: physicochemical; details: using 20-40% w/w HPβCD
[5] = tested on: Methicillin sensitive Staphylococcus aureus (MSSA); details: ex-vivo; cited from earlier work
[6] = tested on: glycopeptide intermediate Staphylococcus aureus (GISA); details: ex-vivo; cited from earlier work
[7] = tested on: Enterococcus faecalis; details: ex-vivo; cited from earlier work
[8] = tested on: Staphylococcus agalactiae; details: ex-vivo; cited from earlier work
[9] = phosphate buffered solution at pH 7.4; after 1 month under normal laboratory conditions of light and temperature; cited from earlier work

In the case of CCCSc1nc(N[C@@H]2C[C@H]2c2ccc(F)c(F)c2)c2nnn([C@@H]3C[C@H](OCCO)[C@@H](O)[C@H]3O)c2n1 [ticagrelor, (1S,2S,3R,5S)-3-{7-[(1R,2S)-2-(3,4-difluorophenyl)cyclopropylamino]5-(propylthio)-3H-(1,2,3)triazolo (4,5-D)pyrimidin-3-yl}-5-(2 hydroxyethoxy) cyclopentane-1,2-diol], the Flocculation test ([1]; HPβCD 30% w/w, ticagrelor 5 mg/ml) is reported as “passed”, the Flocculation test ([1]; HPβCD 35% w/w, ticagrelor 5 mg/ml) is reported as “passed” and the Flocculation test ([1]; HPβCD 40% w/w, ticagrelor 5 mg/ml) is reported as “passed”. The Flocculation test ([1]; HPβCD 40% w/w, ticagrelor 10 mg/ml) was “passed”, the Flocculation test ([1]; SBECD 40% w/w, ticagrelor 5 mg/ml) was “passed” and the Acetal impurity ([2]; T = 0, 40° C./75% RH) was 0.05%. The Amine impurity ([2]; T = 0, 40° C./75% RH) was 0.04%, the Assay ticagrelor ([2]; T = 0, 40° C./75% RH) was 104.27% and the Regiomer impurity ([2]; T = 0, 40° C./75% RH) was 0.00%. The “Sum impurities >0.05” value ([2]; T = 0, 40° C./75% RH) was 0.11%, the Total impurities ([2]; T = 0, 40° C./75% RH) was 0.31% and the Triol impurity ([2]; T = 0, 40° C./75% RH) was 0.04%. The Acetal impurity ([2]; T = 4 weeks, 40° C./75% RH) was 0.05%, the Amine impurity ([2]; T = 4 weeks, 40° C./75% RH) was 0.05% and the Assay ticagrelor ([2]; T = 4 weeks, 40° C./75% RH) was 104.47%. The Regiomer impurity ([2]; T = 4 weeks, 40° C./75% RH) was 0.01%, the “Sum impurities >0.05” value ([2]; T = 4 weeks, 40° C./75% RH) was 0.14% and the Total impurities ([2]; T = 4 weeks, 40° C./75% RH) was 0.32%. The Triol impurity ([2]; T = 4 weeks, 40° C./75% RH) was 0.05%, the Acetal impurity ([2]; T = 8 weeks, 40° C./75% RH) was 0.05% and the Amine impurity ([2]; T = 8 weeks, 40° C./75% RH) was 0.05%. The Assay ticagrelor ([2]; T = 8 weeks, 40° C./75% RH) was 102.59%, the Regiomer impurity ([2]; T = 8 weeks, 40° C./75% RH) was 0.04% and the “Sum impurities >0.05” value ([2]; T = 8 weeks, 40° C./75% RH) was 0.15%. It also gave a Total impurities ([2]; T = 8 weeks, 40° C./75% RH) of 0.29%, a Triol impurity ([2]; T = 8 weeks, 40° C./75% RH) of 0.05% and an Acetal impurity ([2]; T = 12 weeks, 40° C./75% RH) of 0.05%. It also gave an Amine impurity ([2]; T = 12 weeks, 40° C./75% RH) of 0.05%, an Assay ticagrelor ([2]; T = 12 weeks, 40° C./75% RH) of 102.31% and a Regiomer impurity ([2]; T = 12 weeks, 40° C./75% RH) of 0.08%. For the same compound, the “Sum impurities >0.05” value ([2]; T = 12 weeks, 40° C./75% RH) was 0.23%, the Total impurities ([2]; T = 12 weeks, 40° C./75% RH) was 0.41% and the Triol impurity ([2]; T = 12 weeks, 40° C./75% RH) was 0.04%. The Acetal impurity ([2]; T = 24 Weeks, 40° C./75% RH) was 0.05%, the Amine impurity ([2]; T = 24 Weeks, 40° C./75% RH) was 0.07% and the Assay ticagrelor ([2]; T = 24 Weeks, 40° C./75% RH) was 104.39%. The Regiomer impurity ([2]; T = 24 Weeks, 40° C./75% RH) was 0.16%, the “Sum impurities >0.05” value ([2]; T = 24 Weeks, 40° C./75% RH) was 0.33% and the Total impurities ([2]; T = 24 Weeks, 40° C./75% RH) was 0.35%. For the same compound, the Triol impurity ([2]; T = 24 Weeks, 40° C./75% RH) was 0.05%, the “storage stability (conclusion)” value ([2]; accelerated storage conditions of 40° C. and 75% Relative Humidity) was “good storage stability” and the “ticagrelor concentration that could be dissolved” value ([3]; HPβCD 20-40% w/w, without the use of heat) was 5 to 15 mg/mL. The “Appearance in 5% dextrose” value ([3]; HPβCD 22.5% w/w) was “Clear solution”, the “Appearance in NaCl 0.9%” value ([3]; HPβCD 22.5% w/w) was “Turbid” and the “Appearance in 5% dextrose” value ([3]; HPβCD 25.0% w/w) was “Clear solution”. For the same compound, the “Appearance in NaCl 0.9%” value ([3]; HPβCD 25.0% w/w) was “Turbid”, the “Appearance in 5% dextrose” value ([3]; HPβCD 27.5% w/w) was “Clear solution” and the “Appearance in NaCl 0.9%” value ([3]; HPβCD 27.5% w/w) was “Turbid”. For the same compound, the “Appearance in 5% dextrose” value ([3]; HPβCD 30.0% w/w) was “Clear solution”, the “Appearance in NaCl 0.9%” value ([3]; HPβCD 30.0% w/w) was “Turbid” and the “Appearance in 5% dextrose” value ([3]; HPβCD 32.5% w/w) was “Clear solution”. The “Appearance in NaCl 0.9%” value ([3]; HPβCD 32.5% w/w) was “Clear solution”, the “stability of undiluted concentrate” value ([3]; in the refrigerator, HPβCD concentration as low as 22.5% w/w) was “remained stable” and the “Appearance, undiluted” value ([3]; HPβCD 30.0% w/w) was “Clear solution”. The “Appearance, undiluted” value ([3]; HPβCD 32.5% w/w) was “Clear solution”, the “ticagrelor solution concentration achieved” value [4] was 5 −13 mg/ml and the minimal bactericidal concentration [5] was 20 microgram/ml. The minimal bactericidal concentration [6] was 20 microgram/ml, the minimal bactericidal concentration [7] was 40 microgram/ml and the minimal bactericidal concentration [8] was 40 microgram/ml. For the same compound, the “ticagrelor concentrations in solution” value [9] was “declined”.
